Patent publication US20230099344A1, “COMPOUNDS AND METHODS FOR THE TARGETED DEGRADATION OF IRAK-4” (Arvinas Operations, Inc., priority 2021, published 2023)

Tests used:
Format in all cases: cell-based
[1] = tested on: IL6; experiment: LPS stimulated IL6 inhibition assay in PBMC; conditions: Homo sapiens, PBMC, 24 h, human PBMCs, LPS stimulation, compound overnight, IL6 by MSD after 24 hrs; for Dmax: read-out: LPS Stim IL6 inhibition Dmax; for IC50: read-out: LPS stim IL6 inhibition IC50
Experimental: (§1) IL-1β, LPS, or R848 Stimulated IL6 Inhibition and IL-1β Stimulated IL8 Inhibition Assay
(§2) Human PBMC cells were seeded at 2.0×10^6 cells/mL, treated with compound overnight, and dosed with the EC50 concentration of each stimulant (either IL-1B. LPS, or R848) was determined for each donor. After 24 hrs, media was collected and analyzed by MSD for IL6 and/or IL8 levels.

[2] = tested on: IL6; experiment: R848 stimulated IL6 inhibition assay in PBMC; conditions: PBMC, human PBMCs, R848 stimulation, compound overnight, IL6 by MSD after 24 hrs; for Dmax: Homo sapiens, 24 h, read-out: R848 stim IL6 inhibition Dmax; for IC50: read-out: R848 stim IL6 inhibition IC50
Experimental: as §1, §2

[3] = biological target: T1, IRAK-4 (Homo sapiens, UniProt Q9NWZ3); experiment: IRAK-4 ELISA, PBMC degradation; parameters: endogenous in cells; host or cells: PBMC; conditions: treated overnight
T1 sequence (Q9NWZ3 1-460): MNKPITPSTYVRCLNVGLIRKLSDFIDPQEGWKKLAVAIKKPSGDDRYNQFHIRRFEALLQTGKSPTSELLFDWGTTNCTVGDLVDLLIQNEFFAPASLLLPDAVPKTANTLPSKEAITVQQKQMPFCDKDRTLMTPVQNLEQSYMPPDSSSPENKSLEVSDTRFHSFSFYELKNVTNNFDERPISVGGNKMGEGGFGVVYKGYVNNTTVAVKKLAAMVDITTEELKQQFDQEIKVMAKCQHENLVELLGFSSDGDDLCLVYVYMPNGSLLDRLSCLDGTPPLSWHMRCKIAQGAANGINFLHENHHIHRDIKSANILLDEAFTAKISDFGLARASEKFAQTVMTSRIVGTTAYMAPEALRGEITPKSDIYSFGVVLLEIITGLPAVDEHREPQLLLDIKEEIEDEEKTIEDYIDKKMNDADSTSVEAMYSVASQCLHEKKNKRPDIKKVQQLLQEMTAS
How it was run: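 OCI-Ly10 cells (1×10^6/ml) or PBMC (2×10^6/ml) treated with compound on the day of seeding and incubated overnight. IRAK-4 protein remaining in cell lysates quantified by sandwich ELISA.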

SMILES | Dmax [1] [%] | IC50 [1] [nM] | Dmax [2] [%] | IC50 [2] [nM] | DC50 [3] [nM] | Dmax [3] [%] | PBMC DC90 [3]
O=C1CCC(N2Cc3c(ccc(N4CC(F)(CN5CCC(n6cc7cc(NC(=O)c8cnn9cccnc89)c(OCC8CC8)cc7n6)CC5)C4)c3F)C2=O)C(=O)N1 (stereo not shown) [Example 250] | < 70 | ≥ 100 | 80 to 90 | 10 to 50 | 1 to 5 | 80 to 90 | B (B represents a DC90 value ≥10.0 nM and <25.0 nM)
O=C1CCC(N2C(=O)c3ccc(N4CC(F)(CN5CCC(n6cc7cc(NC(=O)c8cnn9cccnc89)c(N8CCC(N9CCC9)CC8)cc7n6)CC5)C4)cc3C2=O)C(=O)N1 (stereo not shown) [Example 243] | < 70 | 10 to 50 | ≥ 90 | 10 to 50 | 5 to 10 | 80 to 90 | D (D represents a DC90 value ≥50 nM)
CC(C)Oc1cc2c(cc1NC(=O)c1cnn3cccnc13)CN(C[C@@H](F)C1CN(CC3CCN(c4ccc5c(c4)C(=O)N(C4CCC(=O)NC4=O)C5=O)CC3)C1)C2=O (stereo partly shown) [Example 19] | 80 to 90 | 10 to 50 | ≥ 90 | 10 to 50 | 1 to 5 | 80 to 90 | A (A represents a DC90 value <10.0 nM)
O=C1CCC(N2C(=O)c3ccc(N4CC(F)(CN5CCC(n6cc7cc(NC(=O)c8cnn9cccnc89)c(OCC(F)F)cc7n6)CC5)C4)cc3C2=O)C(=O)N1 (stereo not shown) [Example 231] | 80 to 90 | 10 to 50 | ≥ 90 | 10 to 50 | 1 to 5 | 80 to 90 | A (A represents a DC90 value <10.0 nM)
CN(C1CCN(c2ccc3c(c2)C(=O)N(C2CCC(=O)NC2=O)C3=O)CC1)[C@H]1CC[C@H](N2Cc3cc(NC(=O)c4cnn5cccnc45)c(N4CCN(CC(F)F)CC4)cc3C2=O)CC1 (stereo partly shown) [Example 371] | 70 to 80 | 10 to 50 | ≥ 90 | 10 to 50 | < 1 | ≥ 90 | B (B represents a DC90 value ≥10.0 nM and <25.0 nM)
CC(C)(C1CN(c2ccc3c(c2)C(=O)N(C2CCC(=O)NC2=O)C3=O)C1)N1CCC(n2cc3cc(NC(=O)c4cnn5cccnc45)c(OCC4CC4)cc3n2)CC1 (stereo not shown) [Example 256] | < 70 | 10 to 50 | 80 to 90 | 10 to 50 | < 1 | ≥ 90 | A (A represents a DC90 value <10.0 nM)
O=C1CCC(N2Cc3cc(N4CCC(CN5CCC(N6Cc7cc(NC(=O)c8cnn9cccnc89)c(N8CCN(CC(F)F)CC8)cc7C6=O)CC5)CC4)ccc3C2=O)C(=O)N1 (stereo not shown) [Example 50] | < 70 | 10 to 50 | ≥ 90 | 10 to 50 | < 1 | ≥ 90 | A (A represents a DC90 value <10.0 nM)
Cn1c(=O)n(C2CCC(=O)NC2=O)c2cccc(N3CC(CN4CCC(n5cc6cc(NC(=O)c7cnn8cccnc78)c(OCC7CC7)cc6n5)CC4)C3)c21 (stereo not shown) [Example 378, N-(6-(cyclopropylmethoxy)-2-(1-((1-(1-(2,6-dioxopiperidin-3-yl)-3-methyl-2-oxo-2,3-dihydro-1H-benzo[d]imidazol-4-yl)azetidin-3-yl)methyl)piperidin-4-yl)-2H-indazol-5-yl)pyrazolo[1,5-a]pyrimidine-3-carboxamide] | 80 to 90 | < 10 | ≥ 90 | < 10 | < 1 | ≥ 90 | A (A represents a DC90 value <10.0 nM)
CC(C)Oc1nc2c(cc1NC(=O)c1cnn3cccnc13)CN(C1CCN(CC3CCN(c4ccc5c(c4)C(=O)N(C4CCC(=O)NC4=O)C5=O)CC3)CC1)C2=O (stereo not shown) [Example 46] | 70 to 80 | 10 to 50 | ≥ 90 | 10 to 50 | 1 to 5 | ≥ 90 | A (A represents a DC90 value <10.0 nM)
O=C1CCC(N2C(=O)c3ccc(N4CC(F)(CN5CCC(n6cc7cc(NC(=O)c8cnn9cccnc89)c(OCC8CC8)cc7n6)CC5)C4)c(F)c3C2=O)C(=O)N1 (stereo not shown) [Example 262] | < 70 | 50 to 100 | ≥ 90 | 10 to 50 | 1 to 5 | 70 to 80 | A (A represents a DC90 value <10.0 nM)
COc1cc(N2CC(F)(CN3CCC(n4cc5cc(NC(=O)c6cnn7cccnc67)c(OC(C)C)nc5n4)CC3)C2)cc2c1C(=O)N(C1CCC(=O)NC1=O)C2=O (stereo not shown) [Example 241] |  | ≥ 100 | 80 to 90 | 10 to 50 | 1 to 5 | 70 to 80 | B (B represents a DC90 value ≥10.0 nM and <25.0 nM)
O=C1CCC(N2C(=O)c3ccc(N4CC[C@H](O[C@H]5CC[C@@H](n6cc7cc(NC(=O)c8cnn9cccnc89)c(OCC8CC8)cc7n6)CC5)C4)cc3C2=O)C(=O)N1 (stereo partly shown) [Example 427] | 70 to 80 | < 10 | < 70 | 10 to 50 | ≥ 10 |  | D (D represents a DC90 value ≥50 nM)
CC(C)Oc1cc2c(cc1NC(=O)c1cnn3cccnc13)CN(C1CCN(CC3(F)CN(c4ccc5c(c4F)CN(C4CCC(=O)NC4=O)C5=O)C3)CC1)C2=O (stereo not shown) [Example 107] | ≥ 90 | 10 to 50 | ≥ 90 | 50 to 100 | 1 to 5 | 70 to 80 | A (A represents a DC90 value <10.0 nM)
CN(C1CN(c2ccc3c(c2)CN(C2CCC(=O)NC2=O)C3=O)C1)[C@H]1CC[C@H](N2Cc3cc(NC(=O)c4cnn5cccnc45)c(N4CCC(N5CCC5)CC4)cc3C2=O)CC1 (stereo partly shown) [Example 370] | ≥ 90 | < 10 | ≥ 90 | < 10 | 1 to 5 | ≥ 90 | A (A represents a DC90 value <10.0 nM)
O=C1CCC(N2Cc3ccc(N4CCC(CN5CCC(N6Cc7cc(NC(=O)c8cnn9cccnc89)c(OCC(F)F)cc7C6=O)CC5)CC4)cc3C2=O)C(=O)N1 (stereo not shown) [Example 45] | 70 to 80 | 10 to 50 | ≥ 90 | < 10 | 1 to 5 | ≥ 90 | A (A represents a DC90 value <10.0 nM)
O=C1CCC(N2Cc3cc(N4CCC(O)(CN5CCC(n6cc7cc(NC(=O)c8cnn9cccnc89)c(OCC8CC8)cc7n6)CC5)CC4)ccc3C2=O)C(=O)N1 (stereo not shown) [Example 258] | 70 to 80 | < 10 | ≥ 90 | 10 to 50 | < 1 | 80 to 90 | A (A represents a DC90 value <10.0 nM)
COc1cc(N2CC(F)(CN3CCC(n4cc5cc(NC(=O)c6cnn7cccnc67)c(OCC6CC6)cc5n4)CC3)C2)cc2c1C(=O)N(C1CCC(=O)NC1=O)C2=O (stereo not shown) [Example 240] | 80 to 90 | 50 to 100 | ≥ 90 | 10 to 50 | < 1 | 80 to 90 | A (A represents a DC90 value <10.0 nM)
CC(C)Oc1cc2c(cc1NC(=O)c1cnn3cccnc13)CN(C1CCN(CC3CCN(c4ccc5c(c4)C(=O)N([C@H]4CCC(=O)NC4=O)C5=O)CC3)CC1)C2=O [Example 48] | 70 to 80 | 10 to 50 | ≥ 90 | 10 to 50 | < 1 | ≥ 90 | A (A represents a DC90 value <10.0 nM)
CN([C@H]1CC[C@H](n2cc3cc(NC(=O)c4cnn5cccnc45)c(OCC4CC4)cc3n2)CC1)[C@H]1C[C@H](Oc2ccc3c(c2)C(=O)N(C2CCC(=O)NC2=O)C3=O)C1 (stereo partly shown) [Example 372] | 80 to 90 | < 10 | ≥ 90 | 10 to 50 | < 1 | ≥ 90 | A (A represents a DC90 value <10.0 nM)
CC(C)Oc1cc2nn(C3CCN(CC4(F)CN(c5ccc6c(c5)C(=O)N(C5CCC(=O)NC5=O)C6=O)C4)CC3)cc2cc1NC(=O)c1cnn2cccnc12 (stereo not shown) [Example 265, N-[2-[1-[[1-[2-(2,6-dioxo-3-piperidyl)-1,3-dioxo-isoindolin-5-yl]-3-fluoro-azetidin-3-yl]methyl]-4-piperidyl]-6-isopropoxy-indazol-5-yl]pyrazolo[1,5-a]pyrimidine-3-carboxamide] | ≥ 90 | 10 to 50 |  |  | 1 to 5 | ≥ 90 | A (A represents a DC90 value <10.0 nM)
